Data as given in ChEMBL document CHEMBL1137763, “Cyclobutane-containing peptides: evaluation as novel metallocarboxypeptidase inhibitors and modelling of their mode of action” (Bioorg Med Chem, 2009).

Assays:
Carboxypeptidase B = molecular target: T1, Carboxypeptidase B (Homo sapiens, UniProt P15086); test: Inhibition of human recombinant carboxypeptidase B expressed in Saccharomyces cerevisiae by microtiter plate method
T1 sequence (P15086 whole entry): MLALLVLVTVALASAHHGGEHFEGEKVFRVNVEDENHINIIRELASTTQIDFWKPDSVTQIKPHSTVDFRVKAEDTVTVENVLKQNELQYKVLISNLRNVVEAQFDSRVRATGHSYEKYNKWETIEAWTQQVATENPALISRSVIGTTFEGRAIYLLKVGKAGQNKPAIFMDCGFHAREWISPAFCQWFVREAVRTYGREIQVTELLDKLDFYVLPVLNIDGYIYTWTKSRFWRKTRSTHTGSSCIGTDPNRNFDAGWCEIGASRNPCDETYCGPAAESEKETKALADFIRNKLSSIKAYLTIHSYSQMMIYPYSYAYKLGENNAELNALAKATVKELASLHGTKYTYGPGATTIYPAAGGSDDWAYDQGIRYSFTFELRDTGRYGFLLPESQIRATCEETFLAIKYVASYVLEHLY

Carboxypeptidase A1 = molecular target: T2, Carboxypeptidase A1 (Bos taurus, UniProt P00730); test: Inhibition of bovine pancreatic carboxypeptidase A by microtiter plate method
T2 sequence (P00730 whole entry): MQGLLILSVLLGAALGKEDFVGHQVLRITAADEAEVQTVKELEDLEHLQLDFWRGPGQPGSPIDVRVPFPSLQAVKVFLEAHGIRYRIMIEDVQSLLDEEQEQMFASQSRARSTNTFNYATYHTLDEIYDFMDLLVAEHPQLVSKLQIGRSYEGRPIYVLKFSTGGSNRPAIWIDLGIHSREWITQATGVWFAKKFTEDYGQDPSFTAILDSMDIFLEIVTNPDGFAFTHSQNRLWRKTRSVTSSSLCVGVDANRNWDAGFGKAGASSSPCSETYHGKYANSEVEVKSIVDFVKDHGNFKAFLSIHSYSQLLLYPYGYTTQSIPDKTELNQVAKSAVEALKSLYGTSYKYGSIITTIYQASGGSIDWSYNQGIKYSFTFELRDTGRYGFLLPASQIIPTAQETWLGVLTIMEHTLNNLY

| Ki (Carboxypeptidase B) [µM] | Ki (Carboxypeptidase A1) [µM] | SMILES |
| --- | --- | --- |
| 275 | 95 | COC(=O)[C@@H]1CC[C@@H]1NC(=O)[C@@H]1CC[C@@H]1NC(=O)OCc1ccccc1 |
| 500 | 550 | COC(=O)CNC(=O)[C@@H]1CC[C@@H]1NC(=O)OCc1ccccc1 |
| 400 | 180 | COC(=O)CCNC(=O)[C@@H]1CC[C@@H]1NC(=O)OCc1ccccc1 |
| 410 | 72.5 | COC(=O)CCCCNC(=O)[C@H]1CC[C@H]1NC(=O)OCc1ccccc1 |
| 43 | 70 | O=C(O)CCNC(=O)[C@@H]1CC[C@@H]1NC(=O)OCc1ccccc1 |
| 70 | 67 | COC(=O)[C@H]1CC[C@H]1NC(=O)[C@H]1CC[C@H]1NC(=O)OCc1ccccc1 |
